Source: US6369066B1, “Substituted 1,3-oxathiolanes with antiviral properties” (BioChem Pharma, Inc., priority 1990, dated 2002)
Values after ≈ are worked out from the molar mass of the structure shown.

What was measured:
Type in all cases: cell-based
HTLV-IIIb = assay: HIV-1 acutely infected cell lines, p24 antigen levels; details: p24 antigen at day 6; for ID50 CEM: CEM cells infected with HTLV-IIIb; for ID50 H9: H9 cells infected with HTLV-IIIb; for ID50 Jurkat: Jurkat cells infected with HTLV-IIIb; for ID50 MT-4: MT-4 cells infected with HTLV-IIIb; for ID50 U937: U937 cells infected with HTLV-IIIb
Protocol: Determination of IC50 ([…]) in HIV-1 Acutely Infected Cell Lines in the Presence of Differet Antiviral Compounds
Various cell lines were infected with HTLV-IIIb (TCID50=200) and then cultured with various concentrations of drug. IC50 was determined by measuring p24 antigen levels in the supernatant of cultures at day 6 of infection.

[1] = system: cord blood mononuclear cells (CBM); assay: Cytotoxicity (CD50) reported with CBM assay
Protocol: Assays on cord blood mononuclear cells were done substantially as described in Gu et al., J. Virol.
In short, viruses (HTLV-IIIB) that had initially been grown on MT-4 cells were passaged onto phytohemaglutinin-prestimulated cord blood mononuclear cells (CBM). For subsequent analysis, samples of CBM (5×10^5 cells per mL) were pretreated with various concentrations of the different compounds for 4 h and were then inoculated with CBL-grown HIV-1 at a multiplicity of infection of 1.0 in the concentration of the compound used for the pretreatment. Fresh medium, including the appropriate concentration of the compound was added three times weekly, and fresh phytohemaglutinin-prestimulated CBM (5×10^5 cells per mL) were added at 2-day intervals. […] 66: 12-19.

[2] = system: HIV-1 HXB2D-184 M→V (3TC™ and FTC resistance mutation); assay: IC50 in CBMCs with constructed mutated virus HXB2D-184; details: Human immunodeficiency virus 1, read-out: IC50 HXB2D-184 M→V
Protocol: In short, viruses (HTLV-IIIB) that had initially been grown on MT-4 cells were passaged onto phytohemaglutinin-prestimulated cord blood mononuclear cells (CBM). For subsequent analysis, samples of CBM (5×10^5 cells per mL) were pretreated with various concentrations of the different compounds for 4 h and were then inoculated with CBL-grown HIV-1 at a multiplicity of infection of 1.0 in the concentration of the compound used for the pretreatment. Fresh medium, including the appropriate concentration of the compound was added three times weekly, and fresh phytohemaglutinin-prestimulated CBM (5×10^5 cells per mL) were added at 2-day intervals. The calculation of IC50 was determined on the basis of RT levels in culture fluids as described in Gao et al., (1992), J. Virol. 66: 12-19.
Determination of IC50 (μM) in Different Mutated Isolates of HIV-1 in the Presence of Different Antiviral Compounds
The procedure is similar to the procedure used in the CBM assay, with the exception that constructed virus and construted mutated virus were used.
The constructed virus HXB2D-65 correspond to the ddC resistance mutation and the constructed virus HXB2D-184 correspond to the 3TC™ and FTC resistance mutation.

H9 = assay: Cell culture inhibitory dose (CCID50) in H9; details: cell counting, trypan blue exclusion, 7 days post drug treatment
Protocol: (§1) Evaluation of Cell Culture Inhibitory Dose (CCID50)
(§2) Cell growth was determined by cell counting and viability by trypan blue exclusion 7 days post drug treatment. CCID50 is expressed as the drug concentration which inhibits 50% of cell growth.

human hepatitis B virus = assay: Inhibition of human hepatitis B virus in 2.2.15 cells, extracellular HBV DNA; details: 10 day treatment
Protocol: Inhibition of Human Hepatitis B Virus.
(§3) The method used for this test is described in detail in Korba et al., Antiviral research 15, 217-228 (1992) which is shortly described as follows: Hep G2 cells transfected with human hepatitis B virus genomic DNA (2.2.15 cells) were grown and maintained in RPMI-1640 culture medium containing %5 foetal bovine serum, 2 mM glutamine and 50 μg/ml gentamicin sulphate, and checked routinely for G418 resistance. Cultures of 2.2.15 cells were grown to confluence in 24 well tissue culture plates and maintained for 2 to 3 days in that condition prior to drug treatment.
Drugs were dissolved in sterile water or sterile 50% DMSO in water at concentrations 100-fold higher than the higher test concentration. These solutions were diluted as needed in culture medium.
The culture medium on the confluent cells was changed 24 hours prior to exposure to test compounds. During the 10 day treatment, the culture medium was changed daily. After 10 days of the treatment, the culture medium was collected and frozen at −70° C. for HBV DNA analysis. […]
A purified 3.2 kb EcoR1 HBV DNA fragment was labeled with [^32p]dCTP by nick translation and used as a probe to detect HBV DNA on the dot-blot by DNA hybridization. After washing, the hybridized blot was dried and ^32p was quantified using an Ambis beta scanner.

[3] = system: 2.2.15 cells (Hep G2 cells transfected with human hepatitis B virus genomic DNA); assay: Cytotoxicity (CD50) reported with HBV assay; details: HBV table
Protocol: as §3

CEM = assay: Cell culture inhibitory dose (CCID50) in CEM; details: cell counting, trypan blue exclusion, 7 days post drug treatment
Protocol: as §1, §2

Row | Structure (SMILES) | ID50 CEM (HTLV-IIIb) [µg/mL] | ID50 H9 (HTLV-IIIb) [µg/mL] | ID50 Jurkat (HTLV-IIIb) [µg/mL] | ID50 MT-4 (HTLV-IIIb) [µg/mL] | ID50 U937 (HTLV-IIIb) [µg/mL] | CD50 [1] [µg/mL] | IC50 [2] [nM] | CCID50 H9 (H9) [µM] | ID50 (HBV) (human hepatitis B virus) [µg/mL] | CD50 (HBV) [3] [µg/mL] | CCID50 CEM (CEM) [µM]
1 | Nc1ccn([C@@H]2CO[C@H](CO)S2)c(=O)n1 [Compound #2, 2S-hydroxymethyl-4S-(cytosin-1′-yl)-1,3-oxathiolane] | 0.4 (≈ 1.74 µM) | 0.075 (≈ 0.327 µM) | 1.8 (≈ 7.85 µM) | 0.9 (≈ 3.93 µM) | 0.3 (≈ 1.31 µM) | >23 | 3000 | >500 | 4 (≈ 17.4 µM) | >10 | 103
2 | Nc1nc(=O)n([C@H]2CO[C@@H](CO)S2)cc1F [compound 3, 2R-hydroxymethyl-4R-(5′-fluorocytosin-1′-yl)-1,3-oxathiolane] | 0.2 (≈ 0.809 µM) | 0.1 (≈ 0.404 µM) | 3.5 (≈ 14.2 µM) | 3.0 (≈ 12.1 µM) | 0.6 (≈ 2.43 µM) | >23 | 9000 | >500 | – | – | >500
3 | Nc1nc(=O)n([C@@H]2CO[C@H](CO)S2)cc1F [compound 4, 2S-hydroxymethyl-4S-(5′-fluorocytosin-1′-yl)-1,3-oxathiolane] | 0.3 (≈ 1.21 µM) | 1.0 (≈ 4.04 µM) | 6.0 (≈ 24.3 µM) | 3.2 (≈ 12.9 µM) | 0.4 (≈ 1.62 µM) | >23 | 2000 | >500 | – | – | >500
